# Test results taken from patent US20200129482A1, “TREATMENT OF NON-SMALL CELL LUNG CANCER” (AbbVie Inc., priority 2017, published 2020).
# “Also recorded” adds a separate entry of the source.
# Columns and labels:
# [1] = system: NSCLC patients; assay: M10-898 clinical trial: survival by LSP status, C/P+veliparib vs C/P; type: in vivo, human; conditions: C/P+veliparib vs carboplatin/paclitaxel (C/P), FIG. 1 left
# Excerpt: (§1) Time to death (overall survival, OS) for a given subject was defined as the number of days from the date that the subject was randomized to the date of the subject's death. All events of death were included, regardless of whether the event occurred while the subject was still taking veliparib/placebo or had previously discontinued veliparib/placebo.
# (§2) Tumor samples for study were from biopsies taken prior to entry onto veliparib clinical trials M10-898 and M11-089. Tumor DNA/RNA was obtained by macrodissecting tumor area (>50% tumor content) from formalin-fixed, paraffin-embedded tumor slides. RNA and DNA was isolated using AllPrep kit (Qiagen).
# RNAseq RPKM data of 52 LSP genes of Table 1 were obtained from sequenced samples of M10-898 clinical trial (https://clinicaltrials.gov/ct2/show/NCT01560104), purchased tissues and M11-089 (https://clinicaltrials.gov/ct2/show/NCT02106546). The RPKM data was log transformed and normalized in order to adjust for batch effects before entering the analyses. […]
# FIG. 1 represents the impact of treatment and patient outcome in M10-898 as a function of LSP status in M10-898 (left) and M11-089 (right). […] The restricted mean survival time was calculated and is represented on the Y-axis.
# [2] = system: NSCLC patients; assay: M11-089 clinical trial: survival by LSP status or stemness score, C/P+veliparib vs C/P; type: in vivo, human; conditions: for median overall survival in LSP- and LSP+ patients / survival (restricted mean survival time, hazard ratio) as a function of LSP status: M11-089; for median overall survival in LSP- and LSP+ patients: C/P+veliparib vs C/P alone, FIG. 2; for survival (restricted mean survival time, hazard ratio) as a function of LSP status: C/P+veliparib vs carboplatin/paclitaxel (C/P), LSP+ vs LSP- patients, FIG. 1 right; for survival in relation to stemness score (mRNAsi): M11-089 samples, stemness score >=0.5 vs <0.5, FIGS. 4 and 5
# Excerpt: as §1, §2
# RNAseq RPKM data of 52 LSP genes of Table 1 were obtained from sequenced samples of M10-898 clinical trial (https://clinicaltrials.gov/ct2/show/NCT01560104), purchased tissues and M11-089 (https://clinicaltrials.gov/ct2/show/NCT02106546). The RPKM data was log transformed and normalized in order to adjust for batch effects before entering the analyses. Unsupervised Clustering was performed on 52 LSP genes from M10-898 and purchased tissues to form 3 clusters of subtypes (AD (Adenocarcinoma), NE (Neuroendocrine), SQ (Squamous)), according to the consistency of known histology defined biologically distinct subtypes. The 52 LSP genes from M10-898 and purchased tissues together with the AD vs. nonAD labelling from unsupervised clustering is served as the training data. A shrunken centroid classifier is built based on the training data. The final classifier takes normalized RPKM data of 52 LSP genes as input, and outputs the probability of being nonAD subtype (prob (AD)=1-prob (nonAD)) for each RNAseq sample from M11-089. The subtype calls (nonAD vs. AD) is based on the probability strength. The subtype call will be labelled unknown If the absolute logarithm of odds (defined as Prob (nonAD)/Prob (AD)) is less than 0.15.
# FIG. 1 represents the impact of treatment and patient outcome in M10-898 as a function of LSP status in M10-898 (left) and M11-089 (right). Patients were categorized as LSP− or LSP+ using RNA expression as depicted on the x-axis. Patients treated with carboplatin/paclitaxel (C/P) are listed in dotted lines, patients treated with C/P+veliparib (V) are listed in solid lines. The restricted mean survival time was calculated and is represented on the Y-axis.
# Summary statistics for each comparison are shown below FIG. 2.
# We examined the M11-089 samples to relate the stemness index to survival with Veliparib. In general, an index ranging from 0 to 1 is created for each tumor sample. Tumor cells closer to 1 are more similar to stem cells and more aggressive than tumor cells closer to 0.
# We derived the stemness score from our samples based on stemness Index Derived using OCLR (mRNAsi) (T. M. Matta, et al., Cell, 2018, 173(2): 338-354), and methodology and code reference is based on the public available information (http://tcgabiolinks.fmrp.usp.br/PanCanStem/mRNAsi.html). The log gene expression for m11-089 is the batch effect corrected combined batch 1,2,3,4 data.
compound,measurement,setting,value
"C[C@]1(c2nc3c(C(N)=O)cccc3[nH]2)CCCN1 [Veliparib, veliparib]","survival (restricted mean survival time, hazard ratio) as a function of LSP status",[1],statistically significant survival advantage only in the LSP+ population
same,"survival (restricted mean survival time, hazard ratio) as a function of LSP status",[1]; listed as veliparib,benefit observed in signature subgroup
same,median overall survival in LSP- and LSP+ patients,[2],statistically significant survival advantage only in the LSP+ population
same,median overall survival in LSP- and LSP+ patients,[2]; listed as veliparib,increased Overall Survival (OS) observed in LSP positive NSCLC patients
same,"survival (restricted mean survival time, hazard ratio) as a function of LSP status",[2],statistically significant survival advantage only in the LSP+ population
same,"survival (restricted mean survival time, hazard ratio) as a function of LSP status",[2]; listed as veliparib,benefit observed in signature subgroup
same,survival in relation to stemness score (mRNAsi),[2],better survival
same,survival in relation to stemness score (mRNAsi),[2]; listed as veliparib,better survival; also recorded: provides a benefit to subgroup of patients
